Patent US6156700A, “3-(1,2-Benzisothiazol- and isoxazol-5-yl)-2,4(1H,3H)-pyrimidinedione or thione and 3-(1,2-benzisothiazol- and isoxazol-5-yl)-4(3H)-pyrimidinone or thione herbicidal agents” (American Cyanmid Company, priority 1998, dated 2000)

Key:
[1] = tested on: Corn, Field, Zea mays; assay: Preemergence herbicidal evaluation, ZEAMX; type: in vivo, L.; conditions: 0.2500 kg/ha
Summary of the method: (§1)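 Values are 0–9 visual ratings of stand, vigor, malformation, size, chlorosis and overall appearance relative to a control, scored 4 to 5 weeks after treatment. Test compound in aqueous acetone was sprayed onto soil right after seeding, at rates equivalent to about 0.0156–0.500 kg per hectare.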

[2] = tested on: ORYSAT Rice, Tebonnet; assay: Tolerance of transplanted rice to post-transplant application (Table III); type: in vivo, Oryza sativa; parameters: scale not given here; conditions: crop tolerance
Method: The tolerance of transplanted rice to post-transplanted herbicide applications is determined as follows: two ten-day-old rice seedlings (cv. Tebonnet) are transplanted into silt loam soil in 32 oz. plastic containers with a diameter of 10.5 cm and no drainage holes. After transplanting, the containers are flooded and the water level is maintained at 1.5 to 3 cm above the soil surface. Three days after transplanting, the flooded soil surface of the containers is treated with the selected aqueous/acetone 50/50 v/v mixture containing the test compounds to provide the equivalent of about 0.0313 to 0.500 kg/ha of active ingredient. The treated containers are placed on greenhouse benches, watered such that the water level is maintained as stated above, and cared for in accordance with conventional greenhouse procedures. Three to four weeks after treatment, the test is terminated and each container is examined and herbicidal effect rated according to the rating system provided in Example 185. The compounds evaluated are reported by compound number given in Example 185.

[3] = tested on: Ragweed, Common, Ambrosia artemisifolia; assay: Postemergence herbicidal evaluation, AMBEL; type: in vivo, L.
Summary of the method: (§2)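 Roughly two-week-old seedlings sprayed with compound dispersed in 50/50 acetone/water plus 0.5% TWEEN 20, delivering about 0.0157 to 0.500 kg active per hectare through a nozzle at 40 psi. Kept in greenhouse; visually rated 4–5 weeks after treatment on a 0–9 scale (stand, vigor, malformation, size, chlorosis) versus control, replicate tests averaged.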

[4] = tested on: Wheat, Winter, cv Riband, Triticum aestivum; assay: Preemergence herbicidal evaluation, TRZAWR; type: in vivo; conditions: 0.2500 kg/ha
Summary of the method: as §1

[5] = tested on: ECHORC Watergrass (Calif.); assay: Postemergence weed control, flooded paddy (Table IV); type: in vivo, Echinochloa oryzoides; parameters: scale not given here
Summary of the method: (§3)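 Herbicidal effect is scored visually on a rating scale three to four weeks after compounds, in aqueous/acetone 50/50 v/v, are added to flood water at roughly 0.0313 to 0.500 kg/ha. Plants: weeds 3 to 5 cm tall, rice at 1.5 to 2.5 leaves.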

[6] = tested on: Corn, Field, Zea mays; assay: Postemergence herbicidal evaluation, ZEAMX; type: in vivo, L.
Summary of the method: as §2

[7] = tested on: ECHORC Watergrass (Calif.); assay: Preemergence weed control, flooded paddy (Table III); type: in vivo, Echinochloa oryzoides; parameters: scale not given here
Method: (§4) Preemergence herbicidal activity under flooded paddy conditions is determined as follows: plant seeds or propagating organs are planted in the top 0.5 cm of silt loam soil in 32 oz. plastic containers with a diameter of 10.5 cm and no drainage holes. Water is added to these containers and maintained at 1.5 to 3 cm above the soil surface for the duration of the experiment. The test compounds are applied as aqueous/acetone mixtures 50/50 v/v pipetted directly into the flood water to give the equivalent of about 0.0313 to 0.500 kg/ha of active ingredient. The treated containers are placed on greenhouse benches and cared for in accordance with conventional greenhouse procedures. Three to four weeks after treatment, the test is terminated and each container is examined and herbicidal effect rated according to the rating system provided in Example 185. The compounds evaluated are reported by compound number given in Example 185.

[8] = tested on: Morningglory Spp., Ipomoea Spp.; assay: Postemergence herbicidal evaluation, IPOSS; type: in vivo; conditions: 0.2500 kg/ha
Method: In the tests, seedling plants are grown in jiffy flats for about two weeks. The test compounds are dispersed in 50/50 acetone/water mixtures containing 0.5% TWEEN®20, a polyoxyethylene sorbitan monolaurate surfactant of Atlas Chemical Industries, in sufficient quantities to provide the equivalent of about 0.0157 kg to 0.500 kg per hectare of active compound when applied to the plants through a spray nozzle operating at 40 psi for a predetermined time. After spraying, the plants are placed on greenhouse benches and are cared for in accordance with conventional greenhouse procedures. From four to five weeks after treatment, the seedling plants are examined and rated according to the rating system set forth below. Where more than one test is involved for a given compound, the data are averaged.
Results of herbicide evaluation are expressed on a rating scale (0-9). The scale is based upon a visual observation of plant stand, vigor, malformation, size, chlorosis and overall plant appearance as compared with a control.

[9] = tested on: ORYSAT Rice, Tebonnet; assay: Rice tolerance, flooded paddy (Table IV); type: in vivo, Oryza sativa; parameters: scale not given here; conditions: crop tolerance
Summary of the method: as §3

[10] = tested on: Rice, Tebonnet, Oryza sativa; assay: Preemergence herbicidal evaluation, ORYSAT; type: in vivo, (L.) Tebonnet; conditions: 0.2500 kg/ha
Summary of the method: as §1

[11] = tested on: CYPIR Rice Flatsedge; assay: Preemergence weed control, flooded paddy (Table III); type: in vivo, Cyperus iria; parameters: scale not given here
Method: as §4

[12] = tested on: Sicklepod, Cassia obtusifolia; assay: Preemergence herbicidal evaluation, CASOB; type: in vivo, L.; conditions: 0.2500 kg/ha
Summary of the method: as §1

[13] = tested on: SAGPY Arrowhead (Pygmaea); assay: Preemergence weed control, flooded paddy (Table III); type: in vivo, Sagittaria pygmaea; parameters: scale not given here
Method: as §4

[14] = tested on: Sicklepod, Cassia obtusifolia; assay: Postemergence herbicidal evaluation, CASOB; type: in vivo, L.
Summary of the method: as §2

[15] = tested on: Wheat, Winter, cv Riband, Triticum aestivum; assay: Postemergence herbicidal evaluation, TRZAWR; type: in vivo
Summary of the method: as §2

Row | SMILES | herbicide rating (0-9) [1] | herbicidal effect rating ([2]; 0.0313 kg/ha) | herbicidal effect rating ([2]; 0.0625 kg/ha) | herbicidal effect rating ([2]; 0.1250 kg/ha) | herbicidal effect rating ([2]; 0.2500 kg/ha) | herbicidal effect rating ([2]; 0.5000 kg/ha) | herbicide rating (0-9) ([3]; 0.0630 kg/ha) | herbicide rating (0-9) ([3]; 0.2500 kg/ha) | herbicide rating (0-9) [4] | herbicidal effect rating ([5]; 0.1250 kg/ha) | herbicidal effect rating ([5]; 0.2500 kg/ha) | herbicidal effect rating ([5]; 0.5000 kg/ha) | herbicide rating (0-9) ([6]; 0.0630 kg/ha) | herbicide rating (0-9) ([6]; 0.2500 kg/ha) | herbicidal effect rating ([7]; 0.0313 kg/ha) | herbicidal effect rating ([7]; 0.0625 kg/ha) | herbicidal effect rating ([7]; 0.1250 kg/ha) | herbicidal effect rating ([7]; 0.2500 kg/ha) | herbicidal effect rating ([7]; 0.5000 kg/ha) | herbicide rating (0-9) [8] | further results
1 | COC(=O)COc1ccc(C)cc1-c1nsc2ccc(-n3c(=O)cc(C(F)(F)F)n(C)c3=O)cc12 [Compound 2, Methyl {{2-{5-[3,6-dihydro-3-methyl-4-(trifluoromethyl) -2,6-dioxo-1(2H)-pyrimidinyl]-1,2-benzisothiazol-3-yl]-p-tolyl}oxy}acetate] | 5.6 | 2.0 | 3.0 | 3.0 | 5.0 | 9.0 | 9.0 | 9.0 | 4.0 | 7.0 | 9.0 | 9.0 | 8.0 | 7.5 | 9.0 | 9.0 | 9.0 | 9.0 | 9.0 | 9.0 | herbicidal effect rating ([9]; 0.1250 kg/ha): 3.0; herbicidal effect rating ([9]; 0.2500 kg/ha): 7.0; herbicidal effect rating ([9]; 0.5000 kg/ha): 8.0; herbicide rating (0-9) [10]: 7.7; herbicidal effect rating ([11]; 0.0313 kg/ha): 8.0; herbicidal effect rating ([11]; 0.0625 kg/ha): 9.0; herbicidal effect rating ([11]; 0.1250 kg/ha): 9.0; herbicidal effect rating ([11]; 0.2500 kg/ha): 9.0; herbicidal effect rating ([11]; 0.5000 kg/ha): 9.0; herbicide rating (0-9) [12]: 9.0; herbicidal effect rating ([13]; 0.0313 kg/ha): 0.0; herbicidal effect rating ([13]; 0.0625 kg/ha): 0.0; herbicidal effect rating ([13]; 0.1250 kg/ha): 2.0; herbicidal effect rating ([13]; 0.2500 kg/ha): 4.0; herbicidal effect rating ([13]; 0.5000 kg/ha): 9.0; herbicide rating (0-9) ([14]; 0.0630 kg/ha): 6.5; herbicide rating (0-9) ([14]; 0.2500 kg/ha): 9.0; herbicide rating (0-9) ([15]; 0.0630 kg/ha): 7.2; herbicide rating (0-9) ([15]; 0.2500 kg/ha): 9.0
2 | COc1ccc(C)cc1-c1nsc2ccc(-n3c(=O)cc(C(F)(F)F)n(C)c3=O)cc12 [Compound 1, 3-[3-(6-Methoxy-m-tolyl)-1,2-benzisothiazol-5-yl]-1-methyl-6-(trifluoromethyl)-2,4(1H,3H)-pyrimidinedione] | 6.5 | 4.7 | 4.7 | 5.3 | 7.7 | 7.0 | 9.0 | 9.0 | 6.0 | 6.5 | 8.0 | 9.0 | 6.0 | 7.0 | 9.0 | 9.0 | 9.0 | 9.0 | 9.0 | 9.0 | herbicidal effect rating ([9]; 0.1250 kg/ha): 4.0; herbicidal effect rating ([9]; 0.2500 kg/ha): 6.0; herbicidal effect rating ([9]; 0.5000 kg/ha): 7.0; herbicide rating (0-9) [10]: 7.5; herbicidal effect rating ([11]; 0.0313 kg/ha): 9.0; herbicidal effect rating ([11]; 0.0625 kg/ha): 9.0; herbicidal effect rating ([11]; 0.1250 kg/ha): 9.0; herbicidal effect rating ([11]; 0.2500 kg/ha): 9.0; herbicidal effect rating ([11]; 0.5000 kg/ha): 9.0; herbicide rating (0-9) [12]: 9.0; herbicidal effect rating ([13]; 0.0313 kg/ha): 3.3; herbicidal effect rating ([13]; 0.0625 kg/ha): 5.0; herbicidal effect rating ([13]; 0.1250 kg/ha): 6.7; herbicidal effect rating ([13]; 0.2500 kg/ha): 8.3; herbicidal effect rating ([13]; 0.5000 kg/ha): 8.5; herbicide rating (0-9) ([14]; 0.0630 kg/ha): 9.0; herbicide rating (0-9) ([14]; 0.2500 kg/ha): 8.0; herbicide rating (0-9) ([15]; 0.0630 kg/ha): 5.3; herbicide rating (0-9) ([15]; 0.2500 kg/ha): 5.5
